Patent publication US8901164B2, “Amphipathic and other double-sided alpha-helix mimetics based on a 1,2-diphenylacetylene scaffold” (University of Maryland, Baltimore, priority 2013, dated 2014)

Biological target: Mcl-1-Bak-BH3 complex (Homo sapiens, UniProt Q07820)
Experiment: Antagonism of the Mcl-1-Bak-BH3 complex (preliminary studies)
Type: binding
Settings: read-out: IC50 for antagonizing the Mcl-1-Bak-BH3 complex

Mcl-1-Bak-BH3 complex, sequence (Q07820 172-327 limits assumed, one chain of several): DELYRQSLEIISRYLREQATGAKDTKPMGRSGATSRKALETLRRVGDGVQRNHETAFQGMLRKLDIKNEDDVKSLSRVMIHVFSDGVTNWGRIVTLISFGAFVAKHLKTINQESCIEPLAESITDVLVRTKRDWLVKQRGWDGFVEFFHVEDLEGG

SMILES: CC(C)COc1ccc(C(=O)NCCN)c(C#Cc2cc(OCc3ccccc3)ccc2NC(=O)C(=O)O)c1OCC(C)C [Compound 14, 2-((2-((6-((2-Aminoethyl)carbamoyl)-2,3-diisobutoxyphenyl)ethynyl)-4-(benzyloxy)phenyl)amino)-2-oxoacetic acid]
- IC50: 3.24 ± 0.48 µM
